Laboratory results reported in article PMC8557474, “Reliability of the AR-CALUX®In Vitro Method Used to Detect Chemicals with (Anti)Androgen Activity: Results of an International Ring Trial” (Toxicological Sciences, 2021).
Converted amounts (≈) assume the structure as drawn. Like-named read-outs stand apart in the source and are kept apart here. Starred links: 1 amine or outer side, 2 acyl side, 3 side chain; linkers in the order of their positions; H or OH if unused. Positions of bridges follow the written chain, without caps; N, C: chain ends. Non-standard residues stand in square brackets, D forms with d. Residues, ends and D or L forms follow the SMILES beside them. Chains are numbered I, II in the order given. Actinocin(9to1) = Cc1c2oc3c(C)ccc(C(=O)[*:1])c3nc-2c(C(=O)[*:2])c(N)c1=O; NMeV = CN[C@H](C(=O)O)C(C)C; Sar = CNCC(=O)O

Experiments:
[1] = tested on: androgen receptor; design: method as in Park et al., 2021; conditions: ref Park et al., 2021; cited from earlier work
[2] = tested on: androgen receptor; conditions: ref OECD, 2020b; cited from earlier work
[3] = biological target: T1, human androgen receptor (hAR) (Homo sapiens, UniProt P10275); experiment: cell-based; assay type: cell-based
T1 construct: host or cells: U2-OS human osteosarcoma cells (ATCC HTB 96), stably transfected (AR-CALUX cell line)
T1 sequence (P10275 1-920): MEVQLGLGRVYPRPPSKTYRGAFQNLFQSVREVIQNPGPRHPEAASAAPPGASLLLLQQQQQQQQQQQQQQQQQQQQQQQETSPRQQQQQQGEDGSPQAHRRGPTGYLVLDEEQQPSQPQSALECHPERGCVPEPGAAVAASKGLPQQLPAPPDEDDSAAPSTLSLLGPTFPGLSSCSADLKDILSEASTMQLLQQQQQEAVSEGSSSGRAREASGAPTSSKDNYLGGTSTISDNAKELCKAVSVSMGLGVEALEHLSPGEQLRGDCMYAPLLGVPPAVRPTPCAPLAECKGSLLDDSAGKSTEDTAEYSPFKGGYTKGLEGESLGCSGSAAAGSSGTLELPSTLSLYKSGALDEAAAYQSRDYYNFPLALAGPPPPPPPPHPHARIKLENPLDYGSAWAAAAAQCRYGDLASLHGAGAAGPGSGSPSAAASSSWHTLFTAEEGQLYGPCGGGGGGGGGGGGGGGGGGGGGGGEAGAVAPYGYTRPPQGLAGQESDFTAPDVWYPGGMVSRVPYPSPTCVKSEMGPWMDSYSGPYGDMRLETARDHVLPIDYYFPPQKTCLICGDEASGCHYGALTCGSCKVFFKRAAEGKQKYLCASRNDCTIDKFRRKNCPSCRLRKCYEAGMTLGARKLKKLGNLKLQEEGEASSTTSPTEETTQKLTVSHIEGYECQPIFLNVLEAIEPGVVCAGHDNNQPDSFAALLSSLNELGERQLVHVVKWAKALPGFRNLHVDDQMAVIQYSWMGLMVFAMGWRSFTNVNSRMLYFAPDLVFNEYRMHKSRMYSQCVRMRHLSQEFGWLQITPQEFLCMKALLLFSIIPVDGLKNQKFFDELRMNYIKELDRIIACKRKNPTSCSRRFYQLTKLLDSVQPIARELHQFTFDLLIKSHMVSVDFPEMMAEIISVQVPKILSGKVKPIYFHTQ
Text: (§1) The AR-CALUX® cell line was created by BioDetection Systems (BDS). It can be purchased from BDS with a license (https://www.biodetectionsystems.com). The human osteosarcoma cell line U2-OS (ATCC HTB 96) was transfected with 2 constructs: pSG5-neo-hAR carrying the cDNA of a human androgen receptor (hAR) under a constitutive promoter, and, a luciferase reporter gene which is preceded by a triple tandem of AREs in front of a TATA box (3x ARE Luc). […] The AR-CALUX® cell line was obtained from the test method developer BDS. EURL ECVAM prepared a master cell bank and a large working cell bank which were tested for the absence of mycoplasma, bacteria, fungi, and yeast and for the absence of Hepatitis B and C and HIV. In addition, to verifying the authenticity of the cell line, Short Tandem Repeat (STR) profiling was carried out to confirm the test system to be U2-OS cells. […] The laboratories were requested, at the end of each part of the study (Parts 1, 2, and 3), to perform a mycoplasma test of their choice. Additional aliquots were sent to EURL ECVAM for a reanalysis of authenticity.
(§2) Subsequently, the test chemical was assessed with a prescreen run (dilution steps of 10) and simultaneously with the quantitative cytotoxicity test to determine (1) cytotoxic concentrations, (2) the response, and (3) the appropriate dose range to be tested. […] The cytotoxicity test was performed once more. Test chemicals were diluted in media and consisted of 8 serial dilutions. Each dilution was tested in triplicate.
(§3) Each experiment (run) was comprised of a maximum of 6 plates. The first plate would contain 8 serial dilutions of the reference chemical DHT (for agonism) or Flutamide (for antagonism), while the positive and negative controls were added at fixed concentrations. In addition, a solvent control was added (medium without the chemical but with DMSO 0.1%).
A. Positive when the relative induction (Yc) of the test item is ≥ 10% (REF RPC10) for two or more consecutive concentrations.

[4] = biological target: T1, human androgen receptor (hAR); experiment: AR-CALUX antagonist assay (medium spiked with DHT at EC50); assay type: cell-based; conditions: for AR-CALUX Antagonist classification: mean of classifications, specificity control taken into account
Text: as §1, §2, §3
(§4) For the antagonist assay, the medium was supplemented with DHT at EC50 concentration (standard assay). […] Each antagonist assay was accompanied by a specificity control test carried out on the same plate.
A. Positive (competitive antagonist) when the relative induction (Yc) of the test item is ≤ 80% (REF RPC80) for two or more consecutive concentrations and […]

[5] = physchem
Procedure: It details the cell cultivation and seeding procedure, the preparation of the reference, control and test chemicals, the procedure for agonist testing and antagonist testing, prescreen runs, and comprehensive runs, as well as data analysis and data interpretation. This SOP also includes references to the SOPs for solubility testing and cytotoxicity testing. […] Solubility was tested both in the solvent and in media under similar circumstances as would be required during the (ant)agonist testing. The initial concentration to be tested was prescribed at 50 mg/ml. Starting from the highest soluble concentration, cytotoxicity was determined with an LDH assay. Visual checking of cytotoxicity in all wells of the plate was however also required for each run.
This included an investigation by heating, centrifugation, microscopy, and visual checking. […] For the purpose of the validation study, the labs were requested to start from 50 mg/ml as the maximal stock concentration to be tested.

[6] = biological target: T1, human androgen receptor (hAR); assay type: cell-based; conditions: for Classification Run1: run 1; for Classification Run3: run 3; for Shift Direction of specificity control dose response: vs standard antagonist dose response
Text: as §4
the square of the correlation coefficient (R^2) is ≤ 0.9 between the relative induction of the test item (Yc) and its specificity control (Sc)

[7] = tested on: androgen receptor; design: method as in Park et al., 2021; conditions: ref Park et al., 2021; cited from earlier work; remark: listed apart in the source
[8] = tested on: androgen receptor; conditions: tested at high concentrations (10 µM); ref Sonneveld et al., (2005); cited from earlier work
[9] = tested on: AR-CALUX cell line (U2-OS); experiment: Cytotoxicity in the AR-CALUX assay (LDH leakage and visual inspection); assay type: cell-based, human; conditions: agonist assay
Procedure: as §2, with “Each test chemical was firstly tested at the highest soluble concentration, starting from 50 mg/ml. Subsequently,” for “Subsequently,”
Cytotoxicity was evaluated in both the agonist and antagonist assay and was carried out with the LDH test which can be performed in parallel to the agonist/antagonist assay and for which no extra plates have to be prepared. A drawback of this test is that the measurement will occur when leakage happens, ie, when the cell wall is degrading and thus the cell is dead. Early events in the onset of cell death cannot be measured with this test. For this reason, the AR-CALUX® method stated that the cytotoxicity of the exposed cells should also be assessed visually (microscopy).

[10] = tested on: androgen receptor; design: method as in Kleinstreuer et al., 2017; conditions: ref Kleinstreuer et al., 2017; cited from earlier work

C#C[C@]1(O)CC[C@H]2[C@@H]3CCc4cc(O)ccc4[C@H]3CC[C@@]21C [17α-Ethynyl estradiol]
22Rv1/MMTV/GR-KO TA agonist result in words [1]: positive
AR-EcoScreen agonist result in words [2]: negative

CCN(CC)C(=S)SSC(=S)N(CC)CC [Disulfiram]
Agonist classification per run, Lab 1 ([3]; Lab 1, 3 runs): N N N
Agonist classification per run, Lab 2 ([3]; Lab 2, 3 runs): N N N
Agonist classification per run, Lab 3 ([3]; Lab 3, 3 runs): N N N
Agonist classification per run, Lab 4 ([3]; Lab 4, 3 runs): N N N
Antagonist classification per run, Lab 1 ([4]; Lab 1, 3 runs): N N N
Antagonist classification per run, Lab 2 ([4]; Lab 2, 3 runs): N N N
Antagonist classification per run, Lab 3 ([4]; Lab 3, 3 runs): N N N
Antagonist classification per run, Lab 4 ([4]; Lab 4, 3 runs): N N N
solubility ([5]; aqueous buffer, kinetic from dmso stock, Solubility in medium, Lab 1, assay medium, Lab 1): 5 µg/mL (≈ 16.9 µM)
solubility ([5]; aqueous buffer, kinetic from dmso stock, Solubility in medium, Lab 2, assay medium, Lab 2): 15 µg/mL (≈ 50.6 µM)
solubility ([5]; aqueous buffer, kinetic from dmso stock, Solubility in medium, Lab 3, assay medium, Lab 3): 15 µg/mL (≈ 50.6 µM)
solubility ([5]; aqueous buffer, kinetic from dmso stock, Solubility in medium, Lab 4, assay medium, Lab 4): 15 µg/mL (≈ 50.6 µM)
solubility ([5]; organic solvent or mixture, thermodynamic from solid, Solubility in DMSO, Lab 1, DMSO, Lab 1, highest tested 50 mg/ml): > 50000 µg/mL
solubility ([5]; organic solvent or mixture, thermodynamic from solid, Solubility in DMSO, Lab 2, DMSO, Lab 2, highest tested 50 mg/ml): > 50000 µg/mL
solubility ([5]; organic solvent or mixture, thermodynamic from solid, Solubility in DMSO, Lab 3, DMSO, Lab 3, highest tested 50 mg/ml): > 50000 µg/mL
solubility ([5]; organic solvent or mixture, thermodynamic from solid, Solubility in DMSO, Lab 4, DMSO, Lab 4, highest tested 50 mg/ml): > 50000 µg/mL

Cc1c2oc3c(C)ccc(C(=O)N[C@@H]4C(=O)N[C@H](C(C)C)C(=O)N5CCC[C@H]5C(=O)N(C)CC(=O)N(C)[C@@H](C(C)C)C(=O)O[C@@H]4C)c3nc-2c(C(=O)N[C@@H]2C(=O)N[C@H](C(C)C)C(=O)N3CCC[C@H]3C(=O)N(C)CC(=O)N(C)[C@@H](C(C)C)C(=O)O[C@@H]2C)c(N)c1=O [Actinomycin D] (I: T[dV]P[Sar][NMeV] / II: T[dV]P[Sar][NMeV]; ester I:1-I:C, II:1-II:C; linker I:N-II:N via Actinocin(9to1))
AR-CALUX antagonist result in words [4]: false positive response
AR-CALUX Antagonist classification [4]: N(FP)
Scn (normalized dose response for the specificity control) [6]: >80%
Classification Run1 ([6]; antagonist): N
Classification Run2 ([6]; antagonist, run 2): N(FP)
Classification Run3 ([6]; antagonist): N(FP)
Shift Direction of specificity control dose response [6]: Right

C[C@]12CC[C@@H]3c4ccc(O)cc4C[C@@H](CCCCCCCCC[S+]([O-])CCCC(F)(F)C(F)(F)F)[C@H]3[C@@H]1CC[C@@H]2O (some centres unmarked) [Fulvestrant]
AR-CALUX antagonist result in words [4]: false positive
AR-CALUX Antagonist classification [4]: N(FP)
Scn (normalized dose response for the specificity control) [6]: >80%
Classification Run1 ([6]; antagonist): N(FP)
Classification Run3 ([6]; antagonist): N(FP)b
Shift Direction of specificity control dose response [6]: Right

CC(C)(O)C(=O)Nc1ccc([N+](=O)[O-])c(C(F)(F)F)c1 [Hydroxyflutamide]
22Rv1/MMTV/GR-KO TA agonist result in words [1]: positive
AR-CALUX agonist result in words [3]: negative
Agonist classification per run, Lab 1 [3]: N N N
Agonist classification per run, Lab 2 [3]: N N N
Agonist classification per run, Lab 3 [3]: N N N
Agonist classification per run, Lab 4 [3]: N N N
Antagonist classification per run, Lab 1 [4]: P P P
Antagonist classification per run, Lab 2 [4]: P P P
Antagonist classification per run, Lab 3 [4]: P P P
Antagonist classification per run, Lab 4 [4]: P P P
AR-EcoScreen agonist result in words [2]: negative

C[C@]12CC[C@@H]3c4ccc(O)cc4CC[C@H]3[C@@H]1CC[C@@H]2O [17β-Estradiol]
22Rv1/MMTV/GR-KO TA antagonist result in words [7]: AR antagonist response
22Rv1/MMTV/GR-KO TA agonist result in words [1]: AR agonist activity
AR-EcoScreen agonist result in words [2]: AR agonist activity

CC(=O)[C@H]1CC[C@H]2[C@@H]3CCC4=CC(=O)CC[C@]4(C)[C@H]3CC[C@]12C [Progesterone]
RTA in comparison to DHT [8]: 36%
22Rv1/MMTV/GR-KO TA agonist result in words [1]: positive

[N-]=[N+]=[N-].[Na+] [Sodium azide]
Agonist classification per run, Lab 1 ([3]; Lab 1, 3 runs): N N N
Agonist classification per run, Lab 2 ([3]; Lab 2, 3 runs): N N N
Agonist classification per run, Lab 3 ([3]; Lab 3, 3 runs): N N N
Agonist classification per run, Lab 4 ([3]; Lab 4, 3 runs): N N N
Antagonist classification per run, Lab 1 ([4]; Lab 1, 3 runs): N N N
Antagonist classification per run, Lab 2 ([4]; Lab 2, 3 runs): N N N
Antagonist classification per run, Lab 3 ([4]; Lab 3, 3 runs): N N N
Antagonist classification per run, Lab 4 ([4]; Lab 4, 3 runs): N N N
Solubility in DMSO, Lab 1 ([5]; DMSO, Lab 1, highest tested 50 mg/ml): 15000 µg/mL
Solubility in DMSO, Lab 2 ([5]; DMSO, Lab 2, highest tested 50 mg/ml): 15000 µg/mL
Solubility in DMSO, Lab 3 ([5]; DMSO, Lab 3, highest tested 50 mg/ml): 15000 µg/mL
Solubility in DMSO, Lab 4 ([5]; DMSO, Lab 4, highest tested 50 mg/ml): 15000 µg/mL
Solubility in medium, Lab 1 ([5]; assay medium, Lab 1): 15 µg/mL
Solubility in medium, Lab 2 ([5]; assay medium, Lab 2): 15 µg/mL
Solubility in medium, Lab 3 ([5]; assay medium, Lab 3): 15 µg/mL
Solubility in medium, Lab 4 ([5]; assay medium, Lab 4): 5 µg/mL

CC(=O)O[C@]1(C(C)=O)CC[C@H]2[C@@H]3C=C(Cl)C4=CC(=O)[C@@H]5C[C@@H]5[C@]4(C)[C@H]3CC[C@@]21C [Cyproterone acetate]
highest nontoxic concentration [9]: 3 µM
AR-Reference list agonist result in words [10]: weak positive
